Test results taken from US10093656B2, “Fused-ring or tricyclic aryl pyrimidine compound used as kinase inhibitor” (NANJING SANHOME PHARMACEUTICAL CO., LTD, priority 2015, dated 2018).

What was measured:
[1] = tested on: NCI-H1975 cells EGFR L858R/T790M; assay: NCI-H1975 cell viability assay (Cell Titer-Glo, 6 days); assay type: cell-based; details: Homo sapiens, 144 h
Description: (§1) RPMI1640, fetal bovine serum, penicillin/streptomycin solution were purchased from Life Technology (Madison, Wis.). Cell Titer-Glo luminescent cell viability reagents were purchased from Promega (Madison, Wis.). A431 cell line and NCI-H1975 cell line were purchased from European Collection of Cell Cultures (ECACC). Plate Reader Instrument: Envision (PerkinElmer).
(§2) 384-Well plates, 300 of A431 cells and NCI-H1975 cells were inoculated per well, a volume of which was 45 μL. And the plates were incubated overnight in a CO2 incubator at 37° C. The test compound was diluted 3-fold to obtain 10 dose concentrations, the final concentrations of which were from 10 μM to 0.508 nM, two wells. The middle plates were filled with 49 μL of medium per well. 1 μL of compound in the gradient dilution compound plates was transferred to the middle plates and mixed well. And then 5 μL liquid in the middle plates was taken to the cell plates. The cells were incubated in a CO2 incubator for 6 days. After 6 days, 25 μL of detection reagents was added. And then the mixture was incubated at room temperature for 10 minutes and the plates were read by Envision.
(§3) The reading is converted to the suppression rate by the following formula (%) (Max-Sample)/(Max-Min)*100%. IC50 Data was measured by Four-parameter curve fitting (Model 205 in XLFIT5, IDBS).

EGFR wild type = biological target: T1, EGFR wild type (Homo sapiens, UniProt P00533); assay: Wild-type EGFR enzyme HTRF inhibition assay; assay type: biochemical; details: 25 μM ATP, read-out: EGFR WT IC50
T1 construct: purchased Life technology (Madison, Wis.)
T1 sequence (P00533 25-1210): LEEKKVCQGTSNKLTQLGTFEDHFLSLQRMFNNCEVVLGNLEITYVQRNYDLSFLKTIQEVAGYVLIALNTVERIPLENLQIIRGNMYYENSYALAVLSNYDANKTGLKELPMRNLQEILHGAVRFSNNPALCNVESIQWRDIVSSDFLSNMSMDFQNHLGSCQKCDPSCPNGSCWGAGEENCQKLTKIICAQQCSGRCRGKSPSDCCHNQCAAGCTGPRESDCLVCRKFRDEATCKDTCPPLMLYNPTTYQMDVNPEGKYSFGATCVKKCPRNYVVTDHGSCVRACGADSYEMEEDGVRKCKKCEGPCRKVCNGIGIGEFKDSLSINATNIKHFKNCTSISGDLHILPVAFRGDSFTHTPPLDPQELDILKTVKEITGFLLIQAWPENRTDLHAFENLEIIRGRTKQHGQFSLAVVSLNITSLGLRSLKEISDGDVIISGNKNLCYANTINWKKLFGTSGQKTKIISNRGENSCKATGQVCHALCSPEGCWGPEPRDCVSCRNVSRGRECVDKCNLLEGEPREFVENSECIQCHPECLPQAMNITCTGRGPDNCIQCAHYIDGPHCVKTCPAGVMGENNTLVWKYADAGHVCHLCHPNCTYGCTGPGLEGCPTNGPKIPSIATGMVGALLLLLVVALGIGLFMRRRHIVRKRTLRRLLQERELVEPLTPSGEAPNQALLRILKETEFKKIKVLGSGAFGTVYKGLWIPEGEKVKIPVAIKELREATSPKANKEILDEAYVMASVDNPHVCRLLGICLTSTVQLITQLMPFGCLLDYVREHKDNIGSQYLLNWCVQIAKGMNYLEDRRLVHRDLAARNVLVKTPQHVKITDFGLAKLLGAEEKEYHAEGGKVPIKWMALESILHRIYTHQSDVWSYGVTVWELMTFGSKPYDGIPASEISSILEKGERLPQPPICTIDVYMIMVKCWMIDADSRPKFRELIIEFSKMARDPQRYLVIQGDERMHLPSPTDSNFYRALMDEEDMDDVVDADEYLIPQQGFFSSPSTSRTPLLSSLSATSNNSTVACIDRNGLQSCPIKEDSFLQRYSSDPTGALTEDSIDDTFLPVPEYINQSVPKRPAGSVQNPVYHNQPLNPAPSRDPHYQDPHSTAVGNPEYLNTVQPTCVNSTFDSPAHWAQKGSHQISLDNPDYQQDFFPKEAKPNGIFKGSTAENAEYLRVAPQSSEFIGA
Description: (§4) Enzyme: EGFR wild type, EGFR T790M/L858R, EGFR T790M and INSR were purchased from Life technology (Madison, Wis.), EGFR d746-750/T790M was purchased from Carna Biosciences (Japan).
(§5) HTRF Kit was purchased from Cis-Bio International which contained the Eu-labeled TK1 antibody, XL665 and biotin-labeled TK1 polypeptide substrates.
(§6) Detecting instrument: Envision (PerkinElmer).
(§7) The test compound was diluted 3-fold to obtain 10 doses of which the final concentration was from 300 nM to 0.015 nM.
Wild-Type EGFR Enzyme Reaction Mixture System:
0.05 nM Wild-type EGFR, 1 μM biotin-TK1 peptide, 25 μM ATP enzyme buffer, a total of which was 10 μL. The reaction plate was white Proxiplate 384-Plus plate (PerkinElmer) and the mixture was reacted at 23° C. for 60 minutes.
(§8) Reaction Detection: 10 μL of detection reagent containing Antibody 2 nM and XL665 62.5 nM was added, and the reagent was incubated at 23° C. for 60 minutes. The plates were read by Envision.
(§9) The reading is converted to the suppression rate (%) by the following formula […]/(Max-Min)*100%. IC50 Data was measured by four-parameter curve fitting (Model 205 in XLFITS, IDBS).

EGFR T790M/L858R = biological target: T2, EGFR T790M/L858R (Homo sapiens, UniProt P00533, L858R/T790M); assay: EGFR T790M/L858R enzyme HTRF inhibition assay; assay type: biochemical; details: 20 μM ATP, read-out: EGFR L858R/T79M IC50
T2 construct: purchased Life technology (Madison, Wis.)
T2 sequence (P00533 25-1210 T790M/L858R): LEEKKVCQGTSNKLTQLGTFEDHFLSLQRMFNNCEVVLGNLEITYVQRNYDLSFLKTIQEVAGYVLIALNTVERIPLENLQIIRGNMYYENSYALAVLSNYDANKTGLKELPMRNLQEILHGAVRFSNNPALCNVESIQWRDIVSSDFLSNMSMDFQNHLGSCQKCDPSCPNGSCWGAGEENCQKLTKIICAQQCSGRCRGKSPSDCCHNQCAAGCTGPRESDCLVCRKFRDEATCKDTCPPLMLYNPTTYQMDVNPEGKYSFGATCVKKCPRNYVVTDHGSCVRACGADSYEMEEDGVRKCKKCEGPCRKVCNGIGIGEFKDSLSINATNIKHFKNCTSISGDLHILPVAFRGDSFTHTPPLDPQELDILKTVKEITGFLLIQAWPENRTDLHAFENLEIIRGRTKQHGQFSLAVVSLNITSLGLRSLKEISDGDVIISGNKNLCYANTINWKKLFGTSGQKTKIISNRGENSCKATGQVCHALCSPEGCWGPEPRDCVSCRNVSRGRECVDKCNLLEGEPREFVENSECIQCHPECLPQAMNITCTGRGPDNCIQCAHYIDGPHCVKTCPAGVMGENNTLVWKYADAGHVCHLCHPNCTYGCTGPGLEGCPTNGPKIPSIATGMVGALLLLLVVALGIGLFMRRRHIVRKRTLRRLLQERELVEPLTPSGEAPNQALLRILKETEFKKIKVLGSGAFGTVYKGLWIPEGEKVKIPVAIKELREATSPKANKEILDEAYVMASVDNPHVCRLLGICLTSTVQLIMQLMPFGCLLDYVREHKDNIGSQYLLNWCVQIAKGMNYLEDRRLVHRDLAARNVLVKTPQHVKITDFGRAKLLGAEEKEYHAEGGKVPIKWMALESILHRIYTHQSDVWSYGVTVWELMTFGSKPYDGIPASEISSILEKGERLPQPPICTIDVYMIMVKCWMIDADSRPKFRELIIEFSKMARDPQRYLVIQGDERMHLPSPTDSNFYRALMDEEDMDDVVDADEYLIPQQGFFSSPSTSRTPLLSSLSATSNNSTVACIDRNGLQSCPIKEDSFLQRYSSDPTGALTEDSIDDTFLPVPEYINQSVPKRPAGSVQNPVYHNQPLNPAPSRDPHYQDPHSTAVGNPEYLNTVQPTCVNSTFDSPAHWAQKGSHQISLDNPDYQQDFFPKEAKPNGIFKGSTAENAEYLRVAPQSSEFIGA
Description: as §4, §5, §6, §7
EGFR T790M/L858R Enzyme Reaction Mixture System:
0.04 nM EGFR T790M/L858R, 1 μM biotin-TK1 peptide, 20 μM ATP enzyme buffer, a total of which was 10 μL. The reaction plate was white Proxiplate 384-Plus plate (PerkinElmer) and the mixture was reacted at 23° C. for 60 minutes.
as §8, §9

A431 cells EGFR WT = assay: A431 cell viability assay (Cell Titer-Glo, 6 days); assay type: cell-based, human; details: for IC50: Homo sapiens, A-431, 144 h, A431 cells, 6 days; for A431:NCI-H1975 (ratio): ratio of cell IC50 A431 to NCI-H1975
Description: as §1, §2, §3

EGFR d746-750/T790M = biological target: T3, EGFR d746-750/T790M (Homo sapiens, UniProt P00533, DEL746-750/T790M); assay: EGFR d746-750/T790M enzyme HTRF inhibition assay; assay type: biochemical; details: 40 μM ATP
T3 construct: purchased Carna Biosciences (Japan)
T3 sequence (P00533 with tags, fused parts or gaps DEL746-750/T790M limits assumed): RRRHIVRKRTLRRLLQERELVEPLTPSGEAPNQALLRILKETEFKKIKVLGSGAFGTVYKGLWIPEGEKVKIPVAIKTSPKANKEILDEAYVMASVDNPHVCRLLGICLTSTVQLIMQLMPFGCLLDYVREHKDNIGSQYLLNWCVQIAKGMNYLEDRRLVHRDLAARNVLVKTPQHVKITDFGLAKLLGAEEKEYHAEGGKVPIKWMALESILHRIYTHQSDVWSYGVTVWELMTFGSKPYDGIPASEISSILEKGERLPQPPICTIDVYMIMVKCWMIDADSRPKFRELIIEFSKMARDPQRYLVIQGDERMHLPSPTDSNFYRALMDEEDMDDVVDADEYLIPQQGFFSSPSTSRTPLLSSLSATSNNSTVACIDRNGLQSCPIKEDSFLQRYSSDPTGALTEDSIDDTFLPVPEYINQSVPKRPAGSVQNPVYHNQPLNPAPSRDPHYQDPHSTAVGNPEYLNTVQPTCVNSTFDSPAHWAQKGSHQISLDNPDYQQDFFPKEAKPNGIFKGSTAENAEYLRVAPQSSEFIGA
Description: as §4, §5, §6, §7
EGFR d746-750/T790M Enzyme Reaction Mixture System:
0.025 nM EGFR d746-750/T790M, 1 μM biotin-TK1 peptide, 40 μM ATP enzyme buffer, a total of which was 10 μL. The reaction plate was white Proxiplate 384-Plus plate (PerkinElmer) and the mixture was reacted at 23° C. for 60 minutes.
as §8, §9

SMILES	IC50 [1] [nM]	IC50 (EGFR wild type) [nM]	IC50 (EGFR T790M/L858R) [nM]	IC50 (A431 cells EGFR WT) [nM]	IC50 (EGFR d746-750/T790M) [nM]	A431:NCI-H1975 (ratio) (A431 cells EGFR WT)
C=CC(=O)Nc1cc(Nc2nccc(-c3c4n(c5ccccc35)CCC4)n2)c(OC)cc1N1CCC(N(C)C)C1 (stereo not drawn) [Embodiment 6, N-(5-((4-(2,3-Dihydro-1H-pyrrolo[1,2-a]indol-9-yl)pyrimidin-2-yl)amino)-2-(3-(dimethylamino)pyrrolidin-1-yl)-4-methoxyphenyl)acrylamide]	4330	20.3	3.07	> 10000	3.29	>2.1
C=CC(=O)Nc1cc(Nc2nccc(-c3c4n(c5ccccc35)CCC4)n2)c(OC)cc1C#CCN(C)C [Embodiment 8, N-(5-((4-(2,3-Dihydro-1H-pyrrolo[1,2-a]indol-9-yl)pyrimidin-2-yl)amino)-2-(3-(dimethylamino)prop-1-yn-1-yl)-4-methoxyphenyl)acrylamide]	474	5.22	0.91	5460	0.64	11.5
C=CC(=O)Nc1cc(Nc2nccc(-c3c4n(c5ccccc35)CCC4)n2)c(OC)cc1CN1CCOCC1 [Embodiment 9, N-(5-((4-(2,3-Dihydro-1H-pyrrolo[1,2-a]indol-9-yl)pyrimidin-2-yl)amino)-4-methoxy-2-(morpholinomethyl)phenyl)acrylamide]	111	6.28	0.75	1440	0.51	13.0
C=CC(=O)Nc1cc(Nc2nccc(-c3c4n(c5ccccc35)CCC4)n2)c(OC)cc1CCCN(C)C [Embodiment 10]	283	27.5	2.19	2260	1.89	8.0
C=CC(=O)Nc1cc(Nc2nccc(-c3c4n(c5ccccc35)CCC4)n2)c(OC)cc1N(C)C(C)CN(C)C (stereo not drawn) [Embodiment 11, N-(5-((4-(2,3-Dihydro-1H-pyrrolo[1,2-a]indol-9-yl)pyrimidin-2-yl)amino)-2-((1-(dimethylamino)propan-2-yl)(methyl)amino)-4-methoxyphenyl)acrylamide]	6.1	0.53	0.23	270	0.2	44.3
C=CC(=O)Nc1cc(Nc2nccc(-c3c4n(c5ccc(F)cc35)CCC4)n2)c(OC)cc1N(C)CCN(C)C [Embodiment 13, N-(2-((2-(Dimethylamino)ethyl)(methyl)amino)-5-((4-(7-fluoro-2,3-dihydro-1H-pyrrolo[1,2-a]indol-9-yl)pyrimidin-2-yl)amino)-4-methoxyphenyl) acrylamide]	5.4	0.65	0.24	545	0.18	101.0
C=CC(=O)Nc1cc(Nc2nccc(-c3c4n(c5ccccc35)CC(F)(F)CC4)n2)c(OC)cc1N(C)CCN(C)C [Embodiment 14, N-(5-((4-(7,7-Difluoro-8,9-dihydro-6H-pyrido[1,2-a]indol-10-yl)pyrimidin-2-yl)amino)-2-((2-(dimethylamino)ethyl)(methyl)amino)-4-methoxyphenyl)acrylamide]	13	0.6	0.27	134	0.33	10.3
C=CC(=O)Nc1cc(Nc2nccc(-c3c4n(c5ccccc35)CCOC4)n2)c(OC)cc1N(CC)CCNCC [Embodiment 21, N-(5-((4-(3,4-Dihydro-1H-[1,4]oxazino[4,3-a]indol-10-yl)pyrimidin-2-yl)amino)-2-(ethyl(2-(ethylamino)ethyl)amino)-4-methoxyphenyl)acrylamide]	50	–	–	1440	–	29
C=CC(=O)Nc1cc(Nc2nccc(-c3c4n(c5ccccc35)CCOC4)n2)c(OC)cc1N(CC)CCN(C)CC [Embodiment 22, N-(5-((4-(3,4-Dihydro-1H-[1,4]oxazino[4,3-a]indol-10-yl)pyrimidin-2-yl)amino)-2-(ethyl(2-(ethyl(methyl)amino)ethyl)amino)-4-methoxyphenyl)acrylamide]	50.4	–	–	1330	–	26
C=CC(=O)Nc1cc(Nc2nccc(-c3c4n(c5ccccc35)CCOC4)n2)c(OC)cc1N(C)CCNC(C)C [Embodiment 23, N-(5-((4-(3,4-Dihydro-1H-[1,4]oxazino[4,3-a]indol-10-yl)pyrimidin-2-yl)amino)-2-((2-(isopropylamino)ethyl)(methyl)amino)-4-methoxyphenyl)acrylamide]	63	–	–	1570	–	25
C=CC(=O)Nc1cc(Nc2nccc(-c3c4n(c5ccccc35)CCOC4)n2)c(OC)cc1N(C)CCN1CCC1 [Embodiment 26, N-(2-((2-(Azetidin-1-yl)ethyl)(methyl)amino)-5-((4-(3,4-dihydro-1H-[1,4]oxazino[4,3-a]indol-10-yl)pyrimidin-2-yl)amino)-4-methoxyphenyl)acrylamide]	102	–	–	2210	–	22

Further lines, with some results ahead:

IC50 [1] [nM]	IC50 (EGFR wild type) [nM]	IC50 (EGFR T790M/L858R) [nM]	IC50 (A431 cells EGFR WT) [nM]	IC50 (EGFR d746-750/T790M) [nM]	SMILES	A431:NCI-H1975 (ratio) (A431 cells EGFR WT)
4740	4.31	0.55	> 10000	0.67	C=CC(=O)Nc1cc(Nc2nccc(-c3c4n(c5ccccc35)CCC4)n2)c(OC)cc1N1CC(N(C)C)C1 [Embodiment 2, N-(5-((4-(2,3-Dihydro-1H-pyrrolo[1,2-a]indol-9-yl)pyrimidin-2-yl)amino)-2-(3-(dimethylamino)azetidin-1-yl)-4-methoxyphenyl)acrylamide]	>2.1
434	60	3.25	4620	2.7	C=CC(=O)Nc1cc(Nc2nccc(-c3c4n(c5ccccc35)CCC4)n2)c(OC)cc1N1CCN(C)CC1 [Embodiment 4, 2-(2-Methoxy-4-(N-methyl)piperazine-5-acrylamidoanilino)-4-(3-(1,2,3-dihydropyrrolo[1,2-a]indol))pyrimidine]	10.6
19	7.28	0.93	2670	0.97	C=CC(=O)Nc1cc(Nc2nccc(-c3c4n(c5ccccc35)CCC4)n2)c(OC)cc1N(C)CCN1CCCC1 [Embodiment 5]	140.6
496	33	2.19	3720	2.59	C=CC(=O)Nc1cc(Nc2nccc(-c3c4n(c5ccccc35)CCC4)n2)c(OC)cc1N(C)CCCN(C)C [Embodiment 7, N-(5-((4-(2,3-Dihydro-1H-pyrrolo[1,2-a]indol-9-yl)pyrimidin-2-yl)amino)-2-((3-(dimethylamino)propyl)(methyl)amino)-4-methoxyphenyl)acrylamide]	7.5
4.8	0.43	0.33	369	0.31	C=CC(=O)Nc1cc(Nc2nccc(-c3c4n(c5ccccc35)CCC4=O)n2)c(OC)cc1N(C)CCN(C)C [Embodiment 12, N-(2-((2-(Dimethylamino)ethyl)(methyl)amino)-4-methoxy-5-((4-(1-oxo-2,3-dihydro-1H-pyrrolo[1,2-a]indol-9-yl)pyrimidin-2-yl)amino)phenyl)acrylamide]	76.9
